These results are taken from patent publication US10077237B2 (Sanofi, priority 2013, dated 2018).

The target of the experiment is T1, recombinant human AMPK complex, containing α2β1γ2 (Homo sapiens, UniProt P54646+Q9Y478).
T1 construct: hsAMPKα2-552-His, hsAMPKβ1-2-270 and hsAMPKγ-2-569 respectively; hsAMPKβ1-2-270; hsAMPKγ-2-569; His (C); made in house; host or cells: Spodoptera frugiperda Sf21 (baculovirus)
Put plainly: AMPK in vitro activation assay (HTRF). The class given is biochemical. The settings on record: for pEC50: HTRF, recombinant human α2β1γ2 AMPK, 200 μM ATP, biotinylated ACC-CREBp peptide, repeat determinations on separate lines; for α2β1γ2 AMPK Emax / Emax: potentiation of AMPK activity as percent over the basal signal (without compound). The procedure:
The recombinant human AMPK complex, containing α2β1γ2 was obtained from baculovirus expression system and generated by cotransfection in Spodoptera frugiperda 21 (Sf21). […] were produced in serum free medium (SF900 II, Invitrogen) for 82 hours after a triple infection at a multiplicity of infection (M.O.I.) of 0.05, 0.06 and 0.045 for hsAMPKα2-552-His, hsAMPKβ1-2-270 and hsAMPKγ-2-569 respectively. Cells were harvested by centrifugation at 1,000×g for 10 minutes at 4° C. and stored at −80° C. The insect cell pellet from 8 liters of culture was resuspended and homogenized in 580 ml of lysis buffer (20 mM Hepes pH 7.5, 150 mM NaCl, 10 mM imidazole, 50 mM NaF, 10% Glycerol and supplemented with EDTA free proteases inhibitor cocktail Roche). The AMPK complex was partially purified using an affinity chromatography under a Ni-NTA Agarose column equilibrated in the lysis buffer and eluted with a gradient (0 to 400 mM) of Imidazol.
A homogeneous time-resolved fluorescence (HTRF) assay was used (Li et al, Anal. Biochem. (2003) 321, 151-156) to identify compounds with stimulating activity for the recombinant human AMPK. Enzyme reaction was performed into a 96-well microtiter plate. First, 20 μL of test compounds in 0.5% DMSO were dispensed followed by 10 μL of protein in 50 mM HEPES buffer at pH 7.0, 100 mM NaCl, 5 mM MgCl2, 0.01% BSA, 0.8 mM DTT. After, 30 min incubation at room temperature, the reaction was initiated by the addition of 10 μL of a solution containing 200 μM of ATP as donor substrate, 2 μM or 0.08 μM of biotinylated ACC-CREBp peptide (PolyPeptide) as acceptor. Plates were then incubated 45 min at 37° C. The reaction was terminated by the addition of 40 μl detection mixture containing Eu^3+ cryptate-conjugated anti-pS^133-CREB antibody and streptavidine-XL665 (CisBio). Plates were further incubated for 2 h30 at room temperature. The fluorescence signal was measured using an Envision multireader (Perkin Elmer). The non-specific signal was obtained without substrates. Potentiation of AMPK activity was expressed as a percent over the basal signal (without compound) from which an EC50 value was determined.
The EC50 of a graded dose response curve represents the concentration of a compound where 50% of its maximal effect is observed.

pEC50: −log10 of the molar value. Values joined by “and” are separate entries in the source; they are usually repeats but may differ in a detail not shown here. Identical values can stand only once.

T1 sequence (P54646 2-552): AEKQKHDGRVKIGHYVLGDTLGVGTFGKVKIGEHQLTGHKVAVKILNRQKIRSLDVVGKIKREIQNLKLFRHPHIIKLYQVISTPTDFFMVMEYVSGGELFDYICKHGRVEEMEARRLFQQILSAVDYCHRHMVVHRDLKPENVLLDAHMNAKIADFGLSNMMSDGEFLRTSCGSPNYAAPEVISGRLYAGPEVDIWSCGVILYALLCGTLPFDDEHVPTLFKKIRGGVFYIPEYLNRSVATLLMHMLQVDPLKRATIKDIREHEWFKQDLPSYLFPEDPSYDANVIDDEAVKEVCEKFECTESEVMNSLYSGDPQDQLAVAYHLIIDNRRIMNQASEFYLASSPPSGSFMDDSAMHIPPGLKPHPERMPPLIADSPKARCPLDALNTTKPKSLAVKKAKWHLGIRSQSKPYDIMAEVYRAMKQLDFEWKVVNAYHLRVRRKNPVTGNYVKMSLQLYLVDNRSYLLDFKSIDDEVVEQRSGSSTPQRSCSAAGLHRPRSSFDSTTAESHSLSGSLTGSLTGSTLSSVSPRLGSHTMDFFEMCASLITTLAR
T1 sequence (Q9Y478 2-270): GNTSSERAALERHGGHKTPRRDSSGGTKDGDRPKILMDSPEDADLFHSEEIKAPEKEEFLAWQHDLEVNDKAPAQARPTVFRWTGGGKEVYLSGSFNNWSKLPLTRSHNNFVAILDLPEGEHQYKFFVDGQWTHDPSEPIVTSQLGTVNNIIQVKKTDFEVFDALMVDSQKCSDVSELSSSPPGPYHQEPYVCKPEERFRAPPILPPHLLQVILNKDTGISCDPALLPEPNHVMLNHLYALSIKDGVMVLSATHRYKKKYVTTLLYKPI
T1 sequence (Q9UGJ0 2-569 partner limits assumed): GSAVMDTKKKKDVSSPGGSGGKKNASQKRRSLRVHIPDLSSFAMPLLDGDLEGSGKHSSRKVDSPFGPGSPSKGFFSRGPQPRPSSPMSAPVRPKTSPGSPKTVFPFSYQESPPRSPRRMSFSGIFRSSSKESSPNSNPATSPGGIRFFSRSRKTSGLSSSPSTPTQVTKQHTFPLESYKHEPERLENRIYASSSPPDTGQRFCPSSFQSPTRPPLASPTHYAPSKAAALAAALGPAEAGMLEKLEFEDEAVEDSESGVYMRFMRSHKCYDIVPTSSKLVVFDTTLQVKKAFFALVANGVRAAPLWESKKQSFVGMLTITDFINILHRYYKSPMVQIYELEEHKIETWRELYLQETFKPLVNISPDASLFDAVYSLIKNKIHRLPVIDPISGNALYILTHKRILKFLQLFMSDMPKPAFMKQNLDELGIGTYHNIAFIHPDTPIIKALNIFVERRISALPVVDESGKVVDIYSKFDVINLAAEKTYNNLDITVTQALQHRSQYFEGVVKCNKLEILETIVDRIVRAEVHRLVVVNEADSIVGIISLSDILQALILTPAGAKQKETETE

Take “6-Chloro-3-[1-hydroxy-1-(3-methoxy-isoxazol-yl)-methylidene]-5-[4-(1-hydroxymethyl-cyclopropyl)-phenyl]-1,3-dihydro-indol-2-one [Compound 54]”: the pEC50 was 8.30 and the “α2β1γ2 AMPK Emax” value is listed as “(187) %”.

Turning to `Cc1cc(C(O)=C2C(=O)Nc3cc(Cl)c(-c4ccc(N(C)C)cc4)cc32)on1` [Compound 1, 6-Chloro-5-(4-dimethylamino-phenyl)-3-[1-hydroxy-1-(3-methyl-isoxazol-5-yl)-methylidene]-1,3-dihydro-indol-2-one], the pEC50 is 7.68 and the “α2β1γ2 AMPK Emax” value is given as “(124 +/− 11) %”.

Regarding `Cc1cc(C([O-])=C2C(=O)Nc3cc(Cl)c(-c4ccc(N(C)C)cc4)cc32)on1.[Na+]` [Compound 2, 6-Chloro-5-(4-dimethylamino-phenyl)-3-[1-hydroxy-1-(3-methyl-isoxazol-5-yl)-methylidene]-1,3-dihydro-indol-2-one, sodium salt], the pEC50 is 7.28 and the “α2β1γ2 AMPK Emax” value is “(183 +/− 51) %”.

For `O=C1Nc2cc(Cl)c(-c3ccc(N4CCOCC4)cc3)cc2C1=C(O)c1cccc(O)c1` [Compound 3, 6-Chloro-3-[1-hydroxy-1-(3-hydroxy-phenyl)-methylidene]-5-(4-morpholin-4-yl-phenyl)-1,3-dihydro-indol-2-one], the pEC50 was 6.72 and the Emax came out at 138%.

On to `O=C1Nc2cc(Cl)c(-c3ccc(N4CCOCC4)cc3)cc2C1=C(O)c1cccc(C(=O)O)c1` [Compound 4, 3-{[6-Chloro-5-(4-morpholin-4-yl-phenyl)-2-oxo-1,2-dihydro-indolylidene]-hydroxy-methyl}-benzoic acid], for which the negative-log EC50 (pEC50) was 7.82 and the maximum response (Emax) was found to be 97%.

On to `COc1cccc(-c2ccc(-c3cc4c(cc3Cl)NC(=O)C4=C(O)c3cc(C)no3)cc2)c1O` [Compound 5, 6-Chloro-5-(2′-hydroxy-3′-methoxy-biphenyl-4-yl)-3-[1-hydroxy-1-(3-methyl-isoxazol-5-yl)-meth-ylidene]-1,3-dihydro-indol-2-one], for which the pEC50 was 8.40 and the Emax stood at 193%.

Consider `Cc1cc(C(O)=C2C(=O)Nc3cc(Cl)c(-c4ccc(C5(CO)CC5)cc4)cc32)on1` [Compound 6, 6-Chloro-5-[4-(1-hydroxymethyl-cyclopropyl)-phenyl]-3-[1-hydroxy-1-(3-methyl-isoxazol-5-yl)-methylidene]-1,3-dihydro-indol-2-one], for which the pEC50 is 8.15 and the Emax turned out to be 186%.

`O=C1Nc2cc(Cl)c(-c3ccc(-c4ccccc4)cc3)cc2C1=C(O)c1ccccc1` [Compound 7, 5-Biphenyl-4-yl-6-chloro-3-[1-hydroxy-1-phenyl-methylidene]-1,3-dihydro-indol-2-one]: the negative-log EC50 (pEC50) is 5.85 and the maximal response (Emax) amounted to 57%.

In the case of `CN(C)c1ccc(-c2cc3c(cc2Cl)NC(=O)C3=C(O)c2cccc(C(=O)O)c2)cc1` [Compound 8, 3-{[6-Chloro-5-(4-dimethylamino-phenyl)-2-oxo-1,2-dihydro-indolylidene]-hydroxy-methyl}-benzoic acid], the pEC50 was 7.48 and the Emax is 124%.

With `CN(C)c1ccc(-c2cc3c(cc2Cl)NC(=O)C3=C(O)c2ccc(C(=O)O)cc2)cc1` [Compound 9, 4-{[6-Chloro-5-(4-dimethylamino-phenyl)-2-oxo-1,2-dihydro-indolylidene]-hydroxy-methyl}-benzoic acid], the negative-log EC50 (pEC50) is 7.62 and 7.64; the Emax was 120%.

Regarding `Cc1ncc(C(O)=C2C(=O)Nc3cc(Cl)c(-c4ccc(N(C)C)cc4)cc32)s1` [Compound 10, 6-Chloro-5-(4-dimethylamino-phenyl)-3-[1-hydroxy-1-(2-methyl-thiazol-5-yl)-methylidene]-1,3-dihydro-indol-2-one], the pEC50 was 7.05 and the Emax stood at 127%.

Consider `O=C1Nc2cc(Cl)c(-c3ccc4ccccc4c3)cc2C1=C(O)c1cccc(F)c1` [Compound 11, 6-Chloro-3-[1-(3-fluoro-phenyl)-1-hydroxy-methylidene]-5-naphthalen-2-yl-1,3-dihydro-indol-2-one], for which the negative logarithm of the EC50 (pEC50) is 5.40 and the maximum response (Emax) came out at 95%.

Take `COc1cc(C(O)=C2C(=O)Nc3cc(Cl)c(-c4ccc(-c5cccc(OC)c5O)cc4)cc32)on1` [Compound 12]: the negative-log EC50 (pEC50) was 9.00 and the Emax came to 172%.

In the case of `Cc1cc(C(O)=C2C(=O)Nc3cc(Cl)c(-c4ccc(N5CCOCC5)cc4)cc32)sn1` [Compound 13, 6-Chloro-3-[1-hydroxy-1-(3-methyl-isothiazol-5-yl)-methylidene]-5-(4-morpholin-4-yl-phenyl)-1,3-dihydro-indol-2-one], the negative-log EC50 (pEC50) is 7.92 and 8.30.

As to `Cc1cc(C(O)=C2C(=O)Nc3cc(Cl)c(-c4ccc(N5CCOCC5)cc4)cc32)on1` [Compound 14, 6-Chloro-3-[1-hydroxy-1-(3-methyl-isoxazol-5-yl)-methylidene]-5-(4-morpholin-4-yl-phenyl)-1,3-dihydro-indol-2-one], the pEC50 was 7.42 and the maximal effect (Emax) was found to be 283%.

As to `Cc1nc(C)c(C(O)=C2C(=O)Nc3cc(Cl)c(-c4ccc(N5CCOCC5)cc4)cc32)s1` [Compound 15, 6-Chloro-3-[1-(2,4-dimethyl-thiazol-5-yl)-1-hydroxy-methylidene]-5-(4-morpholin-4-yl-phenyl)-1,3-dihydro-indol-2-one], the negative logarithm of the EC50 (pEC50) was 7.57 and the maximal response (Emax) worked out at 257%.

On to `Cc1nnc(C(O)=C2C(=O)Nc3cc(Cl)c(-c4ccc(N5CCOCC5)cc4)cc32)o1` [Compound 16, 6-Chloro-3-[1-hydroxy-1-(5-methyl-[1,3,4]oxadiazol-2-yl)-methylidene]-5-(4-morpholin-4-yl-phenyl)-1,3-dihydro-indol-2-one], for which the negative-log EC50 (pEC50) was 8.05 and the Emax is 268%.

In the case of `N#Cc1cccc(C(O)=C2C(=O)Nc3cc(Cl)c(-c4ccc(N5CCOCC5)cc4)cc32)c1` [Compound 18, 3-{[6-Chloro-5-(4-morpholin-4-yl-phenyl)-2-oxo-1,2-dihydro-indolylidene]-hydroxy-methyl}-benzonitrile], the pEC50 was 6.72 and the Emax came to 135%.

For the molecule `COc1ccc(-c2cc3c(cc2Cl)NC(=O)C3=C(O)c2cc(C)no2)cc1` [Compound 20, 6-Chloro-3-[1-hydroxy-1-(3-methyl-isoxazol-5-yl)-methylidene]-5-(4-methoxy-phenyl)-1,3-dihydro-indol-2-one], the negative logarithm of the EC50 (pEC50) was 6.39 and the maximal response (Emax) amounted to 223%.

With `Cc1cc(C(O)=C2C(=O)Nc3cc(Cl)c(-c4ccc(C5CC5)cc4)cc32)on1` [Compound 22, 6-Chloro-5-(4-cyclopropyl-phenyl)-3-[1-hydroxy-1-(3-methyl-isoxazol-5-yl)-methylidene]-1,3-dihydro-indol-2-one], the pEC50 is 6.60 and the maximum response (Emax) came to 147%.

As for `Cc1cc(C(O)=C2C(=O)Nc3cc(Cl)c(-c4ccc(C5(CO)CC5)cc4)cc32)sn1` [Compound 23, 6-Chloro-5-[4-(1-hydroxymethyl-cyclopropyl)-phenyl]-3-[1-hydroxy-1-(3-methyl-isothiazol-5-yl)-methylidene]-1,3-dihydro-indol-2-one], the negative logarithm of the EC50 (pEC50) was 8.52 and the Emax is 158%.

`Cc1cc(C(O)=C2C(=O)Nc3cc(Cl)c(-c4ccc(N5CCCC5)cc4)cc32)on1` [Compound 24, 6-Chloro-3-[1-hydroxy-1-(3-methyl-isoxazol-5-yl)-methylidene]-5-(4-pyrrolidin-1-yl-phenyl)-1,3-dihydro-indol-2-one]: the negative logarithm of the EC50 (pEC50) was 6.96 and the maximum response (Emax) worked out at 143%.

For `O=C1Nc2cc(Cl)c(-c3ccc(N4CCOCC4)cc3)cc2C1=C(O)c1cccnc1` [Compound 25, 6-Chloro-3-[1-hydroxy-1-pyridin-3-yl-methylidene]-5-(4-morpholin-4-yl-phenyl)-1,3-dihydro-indol-2-one], the pEC50 is 6.49 and the Emax was 146%.

Turning to `O=C1Nc2cc(Cl)c(-c3ccc(C4CC4)cc3)cc2C1=C(O)c1cccc(F)c1` [Compound 26, 6-Chloro-5-(4-cyclopropyl-phenyl)-3-[1-(3-fluoro-phenyl)-1-hydroxy-methylidene]-1,3-dihydro-indol-2-one], the pEC50 was 6.36 and the maximal response (Emax) was determined as 153%.
